Literature values as cited in US20110077395A1, “INHIBITORS OF 11-BETA HYDROXYSTEROID DEHYDROGENASE TYPE I” (Bristol-Myers Squibb Company, priority 2005, published 2011).

Test system: hepatic glucose production
Settings: mildly overweight individuals with type 2 diabetes, seven days, versus placebo

CC1(C)[C@@H](OC(=O)CCC(=O)O)CC[C@]2(C)[C@H]3C(=O)C=C4[C@@H]5C[C@@](C)(C(=O)O)CC[C@]5(C)CC[C@@]4(C)[C@]3(C)CC[C@@H]12 [carbenoxolone]
hepatic glucose production: decrease in hepatic glucose production
